Experimental data taken from patent US8193179B2, “3-amino-6-(1-amino-ethyl)-tetrahydropyran derivatives” (Actelion Pharmaceuticals, Ltd, priority 2007, dated 2012).
Converted amounts (≈) assume the structure as drawn. Where two headings read alike, the source gives them in different places.

Legend:
Assay type in all cases: cell-based
[1] = test system: P. aeruginosa A1124; assay: MIC by microdilution in cation-adjusted Mueller-Hinton Broth, P. aeruginosa A1124; details: strain A1124, test medium pH 7.2-7.3; for MIC: Pseudomonas aeruginosa
Experimental: (§1) These assays have been performed following the description given in “Methods for dilution Antimicrobial Susceptibility Tests for Bacteria that Grow Aerobically, 4th ed.; Approved standard: NCCLS Document M7-A4; National Committee for Clinical Laboratory Standards: Villanova, Pa., USA, 1997”. Minimal inhibitory concentrations (MICs; mg/l) were determined in cation-adjusted Mueller-Hinton Broth (BBL) by a microdilution method following NCCLS guidelines (National Committee for Clinical Laboratory Standards. Methods for Dilution Antimicrobial Susceptibility). The pH of the test medium was 7.2-7.3.

[2] = test system: S. aureus A798; assay: MIC by microdilution in cation-adjusted Mueller-Hinton Broth, S. aureus A798; details: strain A798, test medium pH 7.2-7.3; for MIC: Staphylococcus aureus
Experimental: as §1

[3] = test system: A. baumanii T6474; assay: MIC by microdilution in cation-adjusted Mueller-Hinton Broth, A. baumanii T6474; details: strain T6474, test medium pH 7.2-7.3; for MIC: Acinetobacter baumannii
Experimental: as §1

[4] = read-out: MIC P. aeruginosa A1124 (further typical results, comparison with WO 2006/032466)
[5] = read-out: MIC P. aeruginosa A1124

COc1ccc2nccc(C[C@H](N)[C@@H]3CC[C@@H](NCc4ccc5c(n4)NC(=O)CS5)CO3)c2n1 [Example 8, 6-({(3R,6S)-6-[(1S)-1-amino-2-(6-methoxy-[1,5]naphthyridin-4-yl)-ethyl]-tetrahydro-pyran-3-ylamino}-methyl)-4H-pyrido[3,2-b][1,4]thiazin-3-one]
MIC [1, 4]: 2 µg/mL (≈ 4.16 µM)

COc1ccc2ncc(F)c(CC(N)[C@@H]3CC[C@@H](NCc4ccc5c(n4)NC(=O)CO5)CO3)c2n1 (mixture of isomers) [Example 15, 6-({(3R,6S)-6-[(1RS)-1-amino-2-(3-fluoro-6-methoxy-[1,5]naphthyridin-4-yl)-ethyl]tetrahydro-pyran-3-ylamino}-methyl)-4H-pyrido[3,2-b][1,4]oxazin-3-one]
MIC [1, 5]: 0.125 µg/mL
MIC [2]: ≤ 0.031 µg/mL
MIC [3]: ≤ 0.031 µg/mL

COc1ccc2nccc(CC(N)[C@@H]3CC[C@@H](NCc4ccc5c(n4)NC(=O)CS5)CO3)c2c1 (mixture of isomers) [Example 4, 6-({(3R,6S)-6-[(1RS)-1-amino-2-(6-methoxy-quinolin-4-yl)-ethyl]-tetrahydro-pyran-3-ylamino}-methyl)-4H-pyrido[3,2-b][1,4]thiazin-3-one]
MIC [1, 4]: 8 µg/mL

NC(Cc1ccnc2ccc(F)cc12)[C@@H]1CC[C@@H](NC/C=C/c2cc(F)ccc2F)CO1 (mixture of isomers) [Example 3, {(3R,6S)-6-[(1RS)-1-amino-2-(6-fluoro-quinolin-4-yl)-ethyl]-tetrahydro-pyran-3-yl}-[(E)-3-(2,5-difluoro-phenyl)-allyl]-amine]
MIC [1, 5]: 0.5 µg/mL
MIC [2]: 0.25 µg/mL
MIC [3]: 0.5 µg/mL

COc1ccc2nccc(C[C@H](N)[C@@H]3CC[C@@H](NCc4ccc(C)c(F)c4)CO3)c2n1 [Example 19]
MIC P. aeruginosa A1124 [1]: 2 µg/mL (≈ 4.71 µM)
MIC S. aureus A798 [2]: ≦0.031 mg/l
MIC A. baumanii T6474 [3]: 0.5 µg/mL (≈ 1.18 µM)
